Experimental data published in PubChem BioAssay AID248 (DTP/NCI, 2004).
Inconclusive results and toxic doses are left out. Rule as the data show it: active = T/C of 150% or more; inactive = T/C below 125%.

Tested on: L1210 leukemia ip in BDF1 mice, survival T/C
Test: NCI In Vivo Anticancer Drug Screen. Data for tumor model L1210 Leukemia (intraperitoneal) in B6D2F1 (BDF1) mice
Settings: endpoint: mean survival time, higher = longer survival
How it was run: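 Ratio derived from survival: compound-dosed mice over vehicle-dosed mice, all bearing a transplantable tumor.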

[1] = dose: 100.0 mg/kg/injection, schedule: Q01DX001 (ip), vehicle: carboxymethylcellulose (CMC)
[2] = dose: 200.0 mg/kg/injection, schedule: Q01DX001 (ip), vehicle: carboxymethylcellulose (CMC)
[3] = dose: 400.0 mg/kg/injection, schedule: Q01DX001 (ip), vehicle: carboxymethylcellulose (CMC)
[4] = dose: 100.0 mg/kg/injection, schedule: Q04DX003 (ip), vehicle: saline with Tween-80
[5] = dose: 200.0 mg/kg/injection, schedule: Q04DX003 (ip), vehicle: saline with Tween-80
[6] = dose: 400.0 mg/kg/injection, schedule: Q04DX003 (ip), vehicle: saline with Tween-80
[7] = dose: 100.0 mg/kg/injection, schedule: Q01DX001 (ip), vehicle: saline with Tween-80
[8] = dose: 100.0 mg/kg/injection, schedule: Q04DX002 (ip), vehicle: saline
[9] = dose: 100.0 mg/kg/injection, schedule: Q01DX001 (ip), vehicle: Klucel (hydroxypropylcellulose) (HPC)
[10] = dose: 200.0 mg/kg/injection, schedule: Q01DX001 (ip), vehicle: Klucel (hydroxypropylcellulose) (HPC)
[11] = dose: 400.0 mg/kg/injection, schedule: Q01DX001 (ip), vehicle: Klucel (hydroxypropylcellulose) (HPC)
[12] = dose: 100.0 mg/kg/injection, schedule: Q01DX001 (ip), vehicle: saline
[13] = dose: 75.0 mg/kg/injection, schedule: Q01DX001 (ip), vehicle: saline
[14] = dose: 150.0 mg/kg/injection, schedule: Q01DX001 (ip), vehicle: saline
[15] = dose: 200.0 mg/kg/injection, schedule: Q01DX001 (ip), vehicle: saline
[16] = dose: 100.0 mg/kg/injection, schedule: Q04DX003 (ip), vehicle: Klucel (hydroxypropylcellulose) (HPC)
[17] = dose: 200.0 mg/kg/injection, schedule: Q04DX003 (ip), vehicle: Klucel (hydroxypropylcellulose) (HPC)
[18] = dose: 400.0 mg/kg/injection, schedule: Q04DX003 (ip), vehicle: Klucel (hydroxypropylcellulose) (HPC)

Measured: T/C

Cc1ccc(S(=O)(=O)NNC(=O)c2cc(C)c(C)cc2NCC(O)C(O)C(O)CO)cc1 (centres undefined)
inactive: [1] 93 % of control | [2] 98 % of control | [3] 89 % of control

NC(=O)C1C2C=CC(CC2)C1C(N)=O (centres undefined)
inactive: [4] 91 % of control | [5] 96 % of control | [6] 91 % of control

O=C(O)c1ccccc1/C=C/c1ccc([N+](=O)[O-])cc1
inactive: [7] 97 % of control

Cn1ccccc1=O
inactive: [8] 104 % of control | dose: 200.0 mg/kg/injection, schedule: Q04DX002 (ip), vehicle: saline 98 % of control | dose: 400.0 mg/kg/injection, schedule: Q04DX002 (ip), vehicle: saline 104 % of control

CCOc1ccc(-n2c(=O)c(N=Nc3ccc(Cl)cc3)c(O)n(-c3ccc(C)cc3)c2=S)cc1
inactive: [9] 100 % of control | [10] 107 % of control | [11] 100 % of control

CC1(C(Cl)Cl)CCCCC1=O (centres undefined)
inactive: dose: 5.0 mg/kg/injection, schedule: Q01DX001 (ip), vehicle: saline 95 % of control | dose: 10.0 mg/kg/injection, schedule: Q01DX001 (ip), vehicle: saline 96 % of control | dose: 20.0 mg/kg/injection, schedule: Q01DX001 (ip), vehicle: saline 109 % of control | dose: 40.0 mg/kg/injection, schedule: Q01DX001 (ip), vehicle: saline 100 % of control | dose: 80.0 mg/kg/injection, schedule: Q01DX001 (ip), vehicle: saline 97 % of control | [12] 104 % of control

C[N+](C)([O-])CCC=C1c2ccccc2CCc2ccccc21
inactive: dose: 12.5 mg/kg/injection, schedule: Q04DX003 (ip), vehicle: saline 103 % of control | dose: 25.0 mg/kg/injection, schedule: Q04DX003 (ip), vehicle: saline 106 % of control | dose: 50.0 mg/kg/injection, schedule: Q04DX003 (ip), vehicle: saline 103 % of control | dose: 100.0 mg/kg/injection, schedule: Q04DX003 (ip), vehicle: saline 103 % of control | dose: 200.0 mg/kg/injection, schedule: Q04DX003 (ip), vehicle: saline 97 % of control

O=C(O)C12CCC(CO)(CC1)CC2
inactive: dose: 50.0 mg/kg/injection, schedule: Q01DX001 (ip), vehicle: saline with Tween-80 103 % of control | [7] 100 % of control | dose: 200.0 mg/kg/injection, schedule: Q01DX001 (ip), vehicle: saline with Tween-80 92 % of control

O=C(CCl)Nc1ccc(N=Nc2ccccc2)cc1
inactive: dose: 25.0 mg/kg/injection, schedule: Q01DX009 (ip), vehicle: Klucel (hydroxypropylcellulose) (HPC) 90 % of control | dose: 50.0 mg/kg/injection, schedule: Q01DX009 (ip), vehicle: Klucel (hydroxypropylcellulose) (HPC) 90 % of control

OCC(O)C(O)C(O)C(Sc1ccccc1)Sc1ccccc1 (centres undefined)
inactive: [13] 97 % of control | dose: 100.0 mg/kg/injection, schedule: Q01DX001 (ip), vehicle: other 95 % of control | [14] 102 % of control | dose: 200.0 mg/kg/injection, schedule: Q01DX001 (ip), vehicle: other 101 % of control | dose: 300.0 mg/kg/injection, schedule: Q01DX001 (ip), vehicle: saline 102 % of control | dose: 400.0 mg/kg/injection, schedule: Q01DX001 (ip), vehicle: other 97 % of control

CC(=O)OC1C(CO)OC2C1Oc1nc(=N)c(F)cn12 (centres undefined)
inactive: [8] 92 % of control

COc1ccc(C2(CO)OC(CO)C(O)C2O)cc1 (centres undefined)
inactive: dose: 50.0 mg/kg/injection, schedule: Q01DX001 (ip), vehicle: saline 105 % of control | [12] 103 % of control | [15] 97 % of control | dose: 400.0 mg/kg/injection, schedule: Q01DX001 (ip), vehicle: saline 94 % of control

O=C(NCc1ccccc1)C(Cc1ccccc1)(Cc1ccccc1)C(=O)NCc1ccccc1
inactive: [1] 92 % of control | [2] 90 % of control | [3] 92 % of control

O=c1ccc2c([N+](=O)[O-])cc([N+](=O)[O-])c(O)c2[nH]1
inactive: [12] 101 % of control | [15] 101 % of control

CC1(O)CCC2CC1C2(C)CO (centres undefined)
inactive: dose: 50.0 mg/kg/injection, schedule: Q04DX003 (ip), vehicle: Klucel (hydroxypropylcellulose) (HPC) 108 % of control | [16] 101 % of control | [17] 106 % of control | [18] 111 % of control

CC/C=C(\CCC)C1(CC)C(=O)NC(=O)NC1=O
inactive: [13] 94 % of control | [14] 105 % of control

COC(OC)c1[nH]c(=S)[nH]c(=O)c1Cc1cccc2ccccc12
inactive: [9] 105 % of control | dose: 100.0 mg/kg/injection, schedule: Q01DX009 (ip), vehicle: saline with Tween-80 96 % of control | [4] 100 % of control | [10] 105 % of control | dose: 200.0 mg/kg/injection, schedule: Q01DX009 (ip), vehicle: saline with Tween-80 89 % of control | [5] 100 % of control | [11] 96 % of control | dose: 400.0 mg/kg/injection, schedule: Q01DX009 (ip), vehicle: saline with Tween-80 93 % of control | [6] 102 % of control

O=C(Nc1ccc(CC2=NCCN2)cc1)c1ccc(C(=O)Nc2ccc(CC3=NCCN3)cc2)cc1
inactive: dose: 0.5 mg/kg/injection, schedule: Q01DX Z (ip), vehicle: saline 102 % of control | dose: 1.0 mg/kg/injection, schedule: Q01DX Z (ip), vehicle: saline 104 % of control | dose: 2.0 mg/kg/injection, schedule: Q01DX Z (ip), vehicle: saline 91 % of control | dose: 4.0 mg/kg/injection, schedule: Q01DX Z (ip), vehicle: saline 104 % of control | dose: 8.0 mg/kg/injection, schedule: Q01DX Z (ip), vehicle: saline 104 % of control

Cc1cccc(/C=N\OCc2ccccc2)n1
inactive: [4] 98 % of control | [5] 98 % of control | [6] 98 % of control

CC1CCCCN1Cc1ccccc1COC(=O)c1ccc([N+](=O)[O-])cc1 (centres undefined)
inactive: dose: 100.0 mg/kg/injection, schedule: Q04DX002 (ip), vehicle: Klucel (hydroxypropylcellulose) (HPC) 90 % of control | dose: 200.0 mg/kg/injection, schedule: Q04DX002 (ip), vehicle: Klucel (hydroxypropylcellulose) (HPC) 104 % of control | dose: 400.0 mg/kg/injection, schedule: Q04DX002 (ip), vehicle: Klucel (hydroxypropylcellulose) (HPC) 114 % of control

COC1CCC2=C(C1)C(=O)CC1c3ccccc3CCN21 (centres undefined) (tested in a mixture with another compound)
inactive: dose: 6.25 mg/kg/injection, schedule: Q04DX003 (ip), vehicle: saline with Tween-80 97 % of control | dose: 12.5 mg/kg/injection, schedule: Q04DX003 (ip), vehicle: saline with Tween-80 107 % of control | dose: 25.0 mg/kg/injection, schedule: Q04DX003 (ip), vehicle: saline with Tween-80 102 % of control

C/C(=C\c1ccccc1Cl)[N+](=O)[O-]
inactive: dose: 100.0 mg/kg/injection, schedule: Q01DX009 (ip), vehicle: Klucel (hydroxypropylcellulose) (HPC) 95 % of control | [16] 100 % of control | dose: 200.0 mg/kg/injection, schedule: Q01DX009 (ip), vehicle: Klucel (hydroxypropylcellulose) (HPC) 93 % of control | [17] 96 % of control | [18] 105 % of control
